{
  "source": "paper PMC7260179",
  "about": "“Structural insight into the electron transfer pathway of a self-sufficient P450 monooxygenase” (Nature Communications, 2020)",
  "key": {"CYP116B46 [1]": {"molecular_target": "T1, CYP116B46 (Tepidiphilus thermophilus, UniProt A0A0K6ITW2)", "T1 construct": "gene Ga0061068_103196; full-length, synthetic gene in pET46 Ek/LIC (Ni-NTA purified), expressed in E. coli BL21(DE3); residues 27-779 modelled in crystal", "T1 sequence (A0A0K6ITW2 entry or part of it)": "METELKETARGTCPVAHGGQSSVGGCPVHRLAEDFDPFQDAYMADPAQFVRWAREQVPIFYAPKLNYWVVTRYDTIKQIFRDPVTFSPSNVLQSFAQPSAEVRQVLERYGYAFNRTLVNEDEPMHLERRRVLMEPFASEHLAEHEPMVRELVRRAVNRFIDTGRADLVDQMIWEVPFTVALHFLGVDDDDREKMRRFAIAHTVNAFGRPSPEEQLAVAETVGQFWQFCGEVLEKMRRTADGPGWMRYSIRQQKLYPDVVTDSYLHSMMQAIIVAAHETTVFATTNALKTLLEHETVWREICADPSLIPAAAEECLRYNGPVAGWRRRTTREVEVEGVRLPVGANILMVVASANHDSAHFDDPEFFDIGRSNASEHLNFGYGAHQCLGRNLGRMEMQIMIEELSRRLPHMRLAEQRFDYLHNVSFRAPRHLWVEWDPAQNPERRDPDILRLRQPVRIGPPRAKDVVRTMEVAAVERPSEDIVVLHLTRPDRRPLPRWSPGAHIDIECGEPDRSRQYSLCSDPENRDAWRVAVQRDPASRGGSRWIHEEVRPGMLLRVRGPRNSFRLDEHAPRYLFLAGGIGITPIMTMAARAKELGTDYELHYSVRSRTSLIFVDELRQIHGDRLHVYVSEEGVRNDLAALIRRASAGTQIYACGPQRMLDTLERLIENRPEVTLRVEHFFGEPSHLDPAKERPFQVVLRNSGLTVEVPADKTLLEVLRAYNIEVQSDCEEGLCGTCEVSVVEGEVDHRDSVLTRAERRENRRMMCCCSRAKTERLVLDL", "assay": "X-ray crystal structure", "type": "binding", "conditions": "crystals at pH 7.0"}, "CYP116B46 [2]": {"molecular_target": "T1, CYP116B46", "assay": "hydroxylation assay, GC-FID of silylated products", "type": "biochemical", "conditions": "0.4 mM substrate, 10 uM enzyme, 1 mM NADP+ with glucose dehydrogenase/glucose recycling, pH 8.0, 30 C, 5 h"}},
  "data": [
    {"smiles": "Cc1cc2nc3c(=O)[nH]c(=O)nc-3n(C[C@H](O)[C@H](O)[C@H](O)COP(=O)(O)O)c2cc1C", "note": "[FMN]", "values": [
      {"measurement": "X-ray crystal structure, 2.13 A", "setting": "CYP116B46 [1]; reductase domain, co-purified with the recombinant protein", "value": "The FMN bound in the reductase domain was co-purified with the recombinant protein"}
    ]},
    {"smiles": "[S]1[Fe][S][Fe]1", "note": "[[2Fe-2S] cluster]", "values": [
      {"measurement": "X-ray crystal structure, 2.13 A", "setting": "CYP116B46 [1]; ferredoxin domain", "value": "binding sites for each of the prosthetic groups, heme, FMN and binuclear Fe-S cluster"}
    ]},
    {"smiles": "CCCCCCCCCC(=O)O", "note": "[decanoic acid]", "values": [
      {"measurement": "hydroxylation assay, GC-FID of silylated products", "setting": "CYP116B46 [2]", "value": "The enzyme activity of CYP116B46 was estimated by decanoic acid hydroxylation assay"}
    ]}
  ]
}
